Data taken from PubChem BioAssay AID256 (DTP/NCI, 2004).
Where “and” joins values, the source holds several entries; their conditions need not be identical. Equal entries are not always repeated. Inconclusive results and toxic doses are left out. Rule for the calls: active = survival T/C of 150% or more; inactive = T/C below 125% in these data.

Test system: CD2F1 mice, L1210 leukemia ip, survival T/C
Assay: NCI In Vivo Anticancer Drug Screen. Data for tumor model L1210 Leukemia (intraperitoneal) in CD2F1 (CDF1) mice
Settings: higher = longer survival
Summary of the method: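 Implant tumor; dose compound or vehicle; measure endpoint in both groups; report treated divided by control.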

[1] = endpoint: mean survival time, dose: 100.0 mg/kg/injection, schedule: Q01DX009 (ip), vehicle: saline with Tween-80
[2] = endpoint: mean survival time, dose: 200.0 mg/kg/injection, schedule: Q01DX009 (ip), vehicle: saline with Tween-80
[3] = endpoint: mean survival time, dose: 200.0 mg/kg/injection, schedule: Q01DX001 (ip), vehicle: saline
[4] = endpoint: mean survival time, dose: 400.0 mg/kg/injection, schedule: Q01DX001 (ip), vehicle: saline
[5] = endpoint: mean survival time, dose: 100.0 mg/kg/injection, schedule: Q01DX001 (ip), vehicle: saline with Tween-80
[6] = endpoint: mean survival time, dose: 200.0 mg/kg/injection, schedule: Q01DX001 (ip), vehicle: saline with Tween-80
[7] = endpoint: mean survival time, dose: 50.0 mg/kg/injection, schedule: Q01DX009 (ip), vehicle: saline with Tween-80
[8] = endpoint: mean survival time, dose: 100.0 mg/kg/injection, schedule: Q04DX003 (ip), vehicle: saline with Tween-80
[9] = endpoint: mean survival time, dose: 200.0 mg/kg/injection, schedule: Q04DX003 (ip), vehicle: saline with Tween-80
[10] = endpoint: mean survival time, dose: 400.0 mg/kg/injection, schedule: Q04DX003 (ip), vehicle: saline with Tween-80

Measured: T/C

CCOC(=O)Nc1cc(NC/C(CCc2ccccc2)=N/O)c([N+](=O)[O-])c(N)n1
inactive: endpoint: mean survival time, dose: 100.0 mg/kg/injection, schedule: Q01DX001 (ip), vehicle: Klucel (hydroxypropylcellulose) (HPC) 96 % of control | endpoint: mean survival time, dose: 200.0 mg/kg/injection, schedule: Q01DX001 (ip), vehicle: Klucel (hydroxypropylcellulose) (HPC) 91 % of control | endpoint: mean survival time, dose: 400.0 mg/kg/injection, schedule: Q01DX001 (ip), vehicle: Klucel (hydroxypropylcellulose) (HPC) 90 % of control

Cc1ccc(S(=O)(=O)NC(=O)O/N=C/c2ccccn2)cc1
inactive: [1] 100 % of control | [2] 91 % of control | endpoint: mean survival time, dose: 400.0 mg/kg/injection, schedule: Q01DX009 (ip), vehicle: saline with Tween-80 100 % of control

O=C1C=CC(=O)O1 (tested in a mixture with another compound)
inactive: endpoint: mean survival time, dose: 1.56 mg/kg/injection, schedule: Q01DX001 (ip), vehicle: other 109 % of control | endpoint: mean survival time, dose: 1.56 mg/kg/injection, schedule: Q04DX003 (ip), vehicle: other 95 % of control | endpoint: mean survival time, dose: 3.12 mg/kg/injection, schedule: Q01DX001 (ip), vehicle: other 105 % of control | endpoint: mean survival time, dose: 3.12 mg/kg/injection, schedule: Q04DX003 (ip), vehicle: other 97 % of control | endpoint: mean survival time, dose: 6.25 mg/kg/injection, schedule: Q04DX003 (ip), vehicle: other 97 % of control | endpoint: mean survival time, dose: 50.0 mg/kg/injection, schedule: Q01DX001 (ip), vehicle: saline 115 % of control | [3] 117 % of control | [4] 117 % of control | endpoint: mean survival time, dose: 1000.0 mg/kg/injection, schedule: Q01DX001 (ip), vehicle: saline 121 % of control

O=[As](O)(O)c1cccc2ccccc12
inactive: endpoint: mean survival time, dose: 1.25 mg/kg/injection, schedule: Q01DX009 (ip), vehicle: saline 90 % of control | endpoint: mean survival time, dose: 2.5 mg/kg/injection, schedule: Q01DX009 (ip), vehicle: saline 111 % of control

O=C(O)CC(O)(CC(=O)O)C(=O)O.[Sn]
inactive: endpoint: mean survival time, dose: 6.25 mg/kg/injection, schedule: Q04DX003 (ip), vehicle: saline with Tween-80 98 % of control | endpoint: mean survival time, dose: 12.5 mg/kg/injection, schedule: Q04DX003 (ip), vehicle: saline with Tween-80 90 % of control | endpoint: mean survival time, dose: 25.0 mg/kg/injection, schedule: Q04DX003 (ip), vehicle: saline with Tween-80 102 % of control

O=C(C[n+]1cccc(C(=O)NCc2ccccc2)c1)NCc1ccccc1
inactive: endpoint: mean survival time, dose: 25.0 mg/kg/injection, schedule: Q04DX003 (ip), vehicle: saline 103 % of control | endpoint: mean survival time, dose: 50.0 mg/kg/injection, schedule: Q04DX003 (ip), vehicle: saline 101 % of control | endpoint: mean survival time, dose: 100.0 mg/kg/injection, schedule: Q04DX003 (ip), vehicle: saline 98 % of control

CCOC(=O)Nc1cc2c(c(N)n1)N=C(CN(C)c1ccccc1)CN2
inactive: endpoint: mean survival time, dose: 6.25 mg/kg/injection, schedule: Q01DX009 (ip), vehicle: Klucel (hydroxypropylcellulose) (HPC) 110 % of control | endpoint: mean survival time, dose: 12.5 mg/kg/injection, schedule: Q01DX009 (ip), vehicle: Klucel (hydroxypropylcellulose) (HPC) 87 % of control

CCCCCCCCCCOc1ccc(OCCCCCCCCC)cc1
inactive: [5] 86 % of control | [6] 90 % of control

O=C(O)/C=C/C1=CCCCC1
inactive: [7] 101 % of control | [1] 93 % of control | [2] 93 % of control

COC(=O)C(c1ccccc1)C(SCc1ccccc1)c1ccccc1 (stereo unspecified)
inactive: [8] 103 % of control | [9] 95 % of control | [10] 98 % of control

CC1(C)N=C(N)N=C(N)N1c1ccc(OCCCCNC(=O)Nc2ccc(S(=O)(=O)F)cc2)c(Cl)c1
inactive: endpoint: mean survival time, dose: 25.0 mg/kg/injection, schedule: Q01DX001 (ip), vehicle: saline with Tween-80 101 % of control | endpoint: mean survival time, dose: 50.0 mg/kg/injection, schedule: Q01DX001 (ip), vehicle: saline with Tween-80 95 % of control | [5] 94 % of control and 95 % of control

COC(=O)C(C)NC(=O)C(CO)NC(=O)c1cnc2ccccc2n1 (stereo unspecified)
inactive: endpoint: mean survival time, dose: 100.0 mg/kg/injection, schedule: Q01DX001 (ip), vehicle: saline 98 % of control | [3] 102 % of control | [4] 94 % of control

Nc1ncnc2c1ncn2C1OC(COP(=O)(O)O)C(O)C1O.[NH-]C1CCCCC1[NH-].[Pt+2] (stereo unspecified)
inactive: endpoint: median survival time, dose: 3.12 mg/kg/injection, schedule: Q04DX003 (ip), vehicle: saline 101 % of control | endpoint: median survival time, dose: 6.25 mg/kg/injection, schedule: Q04DX003 (ip), vehicle: saline 108 % of control | endpoint: median survival time, dose: 12.5 mg/kg/injection, schedule: Q04DX003 (ip), vehicle: saline 103 % of control | endpoint: median survival time, dose: 25.0 mg/kg/injection, schedule: Q04DX003 (ip), vehicle: saline 108 % of control | endpoint: median survival time, dose: 50.0 mg/kg/injection, schedule: Q04DX003 (ip), vehicle: saline 112 % of control | endpoint: median survival time, dose: 100.0 mg/kg/injection, schedule: Q04DX003 (ip), vehicle: saline 108 % of control | endpoint: median survival time, dose: 200.0 mg/kg/injection, schedule: Q04DX003 (ip), vehicle: saline 122 % of control

CCC(=O)N(N=O)c1ccccc1
inactive: endpoint: mean survival time, dose: 4.7 mg/kg/injection, schedule: Q04DX003 (ip), vehicle: saline 102 % of control | endpoint: mean survival time, dose: 9.4 mg/kg/injection, schedule: Q04DX003 (ip), vehicle: saline 107 % of control | endpoint: mean survival time, dose: 18.8 mg/kg/injection, schedule: Q04DX003 (ip), vehicle: saline 102 % of control

CCCCCCCCCCCCCCCCC(Br)C(=O)c1ccccc1 (stereo unspecified)
inactive: endpoint: mean survival time, dose: 100.0 mg/kg/injection, schedule: Q04DX002 (ip), vehicle: saline with Tween-80 102 % of control | endpoint: mean survival time, dose: 200.0 mg/kg/injection, schedule: Q04DX002 (ip), vehicle: saline with Tween-80 95 % of control | endpoint: mean survival time, dose: 400.0 mg/kg/injection, schedule: Q04DX002 (ip), vehicle: saline with Tween-80 111 % of control

Cc1ncc2c(n1)NC(c1ccc(Cl)cc1Cl)NC2 (stereo unspecified)
inactive: endpoint: mean survival time, dose: 75.0 mg/kg/injection, schedule: Q01DX001 (ip), vehicle: saline 101 % of control | endpoint: mean survival time, dose: 150.0 mg/kg/injection, schedule: Q01DX001 (ip), vehicle: saline 105 % of control | endpoint: mean survival time, dose: 300.0 mg/kg/injection, schedule: Q01DX001 (ip), vehicle: saline 101 % of control

C=CCCCCCCCCC(=O)NCCN1CCOCC1
inactive: [7] 100 % of control | [1] 96 % of control | [2] 88 % of control

CCCCCCC/C=N/NC(=O)c1ccc[n+](C)c1
inactive: [5] 97 % of control | [6] 97 % of control

CC12CCC(=O)C=C1CCC1C2CCC2(C)C(C(=O)Cn3c(=O)[nH]cc(F)c3=O)CCC12 (stereo unspecified)
inactive: endpoint: mean survival time, dose: 12.5 mg/kg/injection, schedule: Q04DX003 (ip), vehicle: Klucel (hydroxypropylcellulose) (HPC) 94 % of control | endpoint: mean survival time, dose: 25.0 mg/kg/injection, schedule: Q04DX003 (ip), vehicle: Klucel (hydroxypropylcellulose) (HPC) 94 % of control | endpoint: mean survival time, dose: 50.0 mg/kg/injection, schedule: Q04DX003 (ip), vehicle: Klucel (hydroxypropylcellulose) (HPC) 97 % of control | endpoint: mean survival time, dose: 100.0 mg/kg/injection, schedule: Q04DX003 (ip), vehicle: Klucel (hydroxypropylcellulose) (HPC) 91 % of control | endpoint: mean survival time, dose: 200.0 mg/kg/injection, schedule: Q04DX003 (ip), vehicle: Klucel (hydroxypropylcellulose) (HPC) 95 % of control

CCN(CC)CCCNc1nccc2c(C)c3[nH]c4ccncc4c3cc12
inactive: endpoint: median survival time, dose: 5.0 mg/kg/injection, schedule: Q01DX001 (ip), vehicle: other 124 % of control
active: endpoint: median survival time, dose: 10.0 mg/kg/injection, schedule: Q01DX001 (ip), vehicle: other 157 % of control | endpoint: median survival time, dose: 20.0 mg/kg/injection, schedule: Q01DX001 (ip), vehicle: other 175 % of control

Cn1c2ccccc2c2ccccc21
inactive: [8] 100 % of control | [9] 102 % of control | [10] 97 % of control

CCC(O)C(C)(C)[N+](=O)[O-] (stereo unspecified)
inactive: endpoint: mean survival time, dose: 5.0 mg/kg/injection, schedule: Q01DX009 (ip), vehicle: saline 95 % of control | endpoint: mean survival time, dose: 10.0 mg/kg/injection, schedule: Q01DX009 (ip), vehicle: saline 98 % of control | endpoint: mean survival time, dose: 20.0 mg/kg/injection, schedule: Q01DX009 (ip), vehicle: saline 98 % of control

CCCCCCCC(=O)[O][Hg][CH2]C1COC([CH2][Hg][O]C(=O)CCCCCCC)CO1 (stereo unspecified)
inactive: endpoint: mean survival time, dose: 6.25 mg/kg/injection, schedule: Q01DX009 (ip), vehicle: saline with Tween-80 106 % of control | endpoint: mean survival time, dose: 12.5 mg/kg/injection, schedule: Q01DX009 (ip), vehicle: saline with Tween-80 96 % of control

O=COC1CC2CC1C1CCCC21 (stereo unspecified)
inactive: [7] 95 % of control | [1] 93 % of control | [2] 97 % of control

CC(=O)O.CC(=O)O.CC(=O)O.CC(=O)O.[Rh].[Rh]
inactive: endpoint: mean survival time, dose: 6.25 mg/kg/injection, schedule: Q01DX009 (ip), vehicle: saline 110 % of control | endpoint: mean survival time, dose: 12.5 mg/kg/injection, schedule: Q01DX009 (ip), vehicle: saline 116 % of control | endpoint: mean survival time, dose: 25.0 mg/kg/injection, schedule: Q01DX009 (ip), vehicle: saline 100 % of control

CC(=O)Nc1ccc(S(=O)(=O)/N=C2\C=CC(=O)c3ccccc32)cc1
inactive: [7] 98 % of control | [5] 104 % of control | [1] 100 % of control | [6] 111 % of control
